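Assay format: 96-well plates, 48-hour exposure. At the GI50, growth is halved.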 Active and inactive are the calls of the source. No stated cut-off is given here; in the data, active = GI50 up to about 1.1 µM and inactive = higher.
Tests used:
Assay in all cases: growth of human tumour cells (NCI), 48 h
UO-31 = tested on: UO-31
LOX IMVI = tested on: LOX IMVI
HCT-116 = tested on: HCT-116
OVCAR-8 = tested on: OVCAR-8
HCT-15 = tested on: HCT-15
HT-29 = tested on: HT-29
HL-60 = tested on: HL-60
NCI-H522 = tested on: NCI-H522
NCI-H23 = tested on: NCI-H23
RPMI-8226 = tested on: RPMI-8226
MOLT-4 = tested on: MOLT-4
HOP-62 = tested on: HOP-62
CAKI-1 = tested on: CAKI-1
M14 = tested on: M14
IGROV-1 = tested on: IGROV-1
TK-10 = tested on: TK-10
SK-OV-3 = tested on: SK-OV-3
U-251 = tested on: U-251
SF-539 = tested on: SF-539

| SMILES | GI50 (UO-31) | GI50 (LOX IMVI) | GI50 (HCT-116) | GI50 (OVCAR-8) | GI50 (HCT-15) | GI50 (HT-29) | GI50 (HL-60) | GI50 (NCI-H522) | GI50 (NCI-H23) | GI50 (RPMI-8226) | GI50 (MOLT-4) | GI50 (HOP-62) | GI50 (CAKI-1) | GI50 (M14) | GI50 (IGROV-1) | GI50 (TK-10) | GI50 (SK-OV-3) | GI50 (U-251) | GI50 (SF-539) |
| --- | --- | --- | --- | --- | --- | --- | --- | --- | --- | --- | --- | --- | --- | --- | --- | --- | --- | --- | --- |
| CC(C)c1cccc(=O)c(O)c1 [HINOKITIOL] | 10.5 µM (inactive) | 5.06 µM (inactive) | 3.91 µM (inactive) | 4.45 µM (inactive) | 5.14 µM | 4.27 µM (inactive) | 2.49 µM (inactive) | 3.82 µM (inactive) | 8.09 µM (inactive) | 7.93 µM (inactive) | 3.18 µM (inactive) | 10.9 µM (inactive) | 16.1 µM (inactive) | 8.49 µM (inactive) | 13.5 µM (inactive) | 58.1 µM (inactive) | 49.4 µM (inactive) | 9.12 µM (inactive) | 5.31 µM (inactive) |
| CC(C)(C)C1CCC2c3c([nH]c4ncccc34)C3C(=O)N(c4ccccc4)C(=O)C3C2C1 (configuration not stated) | > 100 µM (inactive) | > 100 µM (inactive) | > 100 µM (inactive) | 99.3 µM (inactive) | > 100 µM | > 100 µM (inactive) | 65.9 µM (inactive) | 89.3 µM (inactive) | > 100 µM (inactive) | > 100 µM (inactive) | > 100 µM (inactive) | > 100 µM (inactive) | > 100 µM (inactive) | > 100 µM (inactive) | > 100 µM (inactive) | > 100 µM (inactive) | > 100 µM (inactive) | > 100 µM (inactive) | > 100 µM (inactive) |
| O=C1C2=C(CC3C(C2)C3(Br)Br)C(=O)C2=C1CC1C(C2)C1(Br)Br (configuration not stated) | > 100 µM (inactive) | 82.4 µM (inactive) | > 100 µM (inactive) | > 100 µM (inactive) | > 100 µM | > 100 µM (inactive) | > 100 µM (inactive) | 34.6 µM (inactive) | > 100 µM (inactive) |  | > 100 µM (inactive) | > 100 µM (inactive) | > 100 µM (inactive) | > 100 µM (inactive) | > 100 µM (inactive) | > 100 µM (inactive) | > 100 µM (inactive) | > 100 µM (inactive) | > 100 µM (inactive) |
| CCCCCCCCCCCCCC/C(C(=O)OC)=C(/O)C(=O)OCC | 23.6 µM (inactive) | 17.8 µM (inactive) | 47.6 µM (inactive) | 44.8 µM (inactive) | 19.7 µM | 36.4 µM (inactive) | > 100 µM (inactive) | 43.3 µM (inactive) | > 100 µM (inactive) | > 100 µM (inactive) | 37.6 µM (inactive) | 61.2 µM (inactive) | 31.4 µM (inactive) | 20.2 µM (inactive) | 30 µM (inactive) | 47.3 µM (inactive) | 35.3 µM (inactive) | 26.3 µM (inactive) | > 100 µM (inactive) |
| Cc1cc(NS(=O)(=O)c2ccc(NC(=O)c3cccc4c(Nc5ccc(S(=O)(=O)Nc6cc(C)on6)cc5)c5ccc(Cl)cc5nc34)cc2)no1 | 25.3 µM (inactive) | 53.7 µM (inactive) | 23.2 µM (inactive) | > 100 µM (inactive) | 45.9 µM | > 100 µM (inactive) | 35 µM (inactive) | 31.4 µM (inactive) | 45.1 µM (inactive) | 47.1 µM (inactive) | 56 µM (inactive) | 61.5 µM (inactive) | > 100 µM (inactive) | 32.1 µM (inactive) | 59.4 µM (inactive) | > 100 µM (inactive) | > 100 µM (inactive) | 35.5 µM (inactive) | 37.7 µM (inactive) |
| CC1(C)COC(c2ccc(C(=O)c3ccc(Cl)cc3)cc2)=N1 | 58.7 µM (inactive) | > 100 µM (inactive) | > 100 µM (inactive) | 84.9 µM (inactive) | > 100 µM | > 100 µM (inactive) | 43.5 µM (inactive) | > 100 µM (inactive) | 6.95 µM (inactive) | > 100 µM (inactive) | 98.2 µM (inactive) | > 100 µM (inactive) | > 100 µM (inactive) | > 100 µM (inactive) | > 100 µM (inactive) |  | > 100 µM (inactive) | > 100 µM (inactive) | > 100 µM (inactive) |
| C/C(=N/O)C1CC=C(S(=O)(=O)c2ccccc2)C1 (configuration not stated) | > 100 µM (inactive) | > 100 µM (inactive) |  | > 100 µM (inactive) | > 100 µM | > 100 µM (inactive) | > 100 µM (inactive) | > 100 µM (inactive) | > 100 µM (inactive) | > 100 µM (inactive) | > 100 µM (inactive) | > 100 µM (inactive) | > 100 µM (inactive) | > 100 µM (inactive) | > 100 µM (inactive) | > 100 µM (inactive) | > 100 µM (inactive) | > 100 µM (inactive) | > 100 µM (inactive) |
| COC(=O)C1=CC(=O)C(C(=O)Nc2ccc(OC)cc2)C(c2ccccc2)O1 (configuration not stated) | 30.5 µM (inactive) | 45.1 µM (inactive) | 28.6 µM (inactive) | 34.6 µM (inactive) | 40.6 µM | > 66.5 µM (inactive) | > 84.3 µM (inactive) | 28 µM (inactive) | 21.4 µM (inactive) | 54.5 µM (inactive) | > 74.5 µM (inactive) | 24 µM (inactive) | 25.2 µM (inactive) | 33.1 µM (inactive) | 20.5 µM (inactive) | 31.6 µM (inactive) | 28.8 µM (inactive) | 21 µM (inactive) | 21.4 µM (inactive) |
| Cc1cc(C)nc(NS(=O)(=O)c2ccc(NC(=O)c3cccc4c(=O)c5ccccc5[nH]c34)cc2)n1 | 22.2 µM (inactive) | 15.2 µM (inactive) | 17 µM (inactive) | 19.2 µM (inactive) | 19.7 µM | 21.3 µM (inactive) | 16.6 µM (inactive) | 13.1 µM (inactive) | 17 µM (inactive) | 10.9 µM (inactive) | 30.5 µM (inactive) | 20.1 µM (inactive) | 33 µM (inactive) | 18.9 µM (inactive) | 26.1 µM (inactive) | 25.9 µM (inactive) | 0.18 µM (active) | 16.5 µM (inactive) | 18.4 µM (inactive) |
| O=c1c(Br)cc2nc3ccccc3sc-2c1Br | > 100 µM (inactive) | 61.7 µM (inactive) | > 100 µM (inactive) | 19.5 µM (inactive) | > 68.7 µM | > 100 µM (inactive) | 16.3 µM (inactive) | 15.8 µM (inactive) | 29.9 µM (inactive) | 18.5 µM (inactive) | 22.2 µM (inactive) | > 100 µM (inactive) | > 100 µM (inactive) | > 100 µM (inactive) | > 100 µM (inactive) | > 100 µM (inactive) | > 100 µM (inactive) | > 80.7 µM (inactive) | > 83.9 µM (inactive) |
| [N-]=[N+]=Nc1ccccc1Oc1ccccc1 | > 100 µM (inactive) | > 100 µM (inactive) | > 100 µM (inactive) | > 100 µM (inactive) | > 100 µM | > 100 µM (inactive) | > 100 µM (inactive) | > 100 µM (inactive) | > 100 µM (inactive) | > 100 µM (inactive) | > 100 µM (inactive) | > 100 µM (inactive) | > 100 µM (inactive) | > 100 µM (inactive) | > 100 µM (inactive) | > 100 µM (inactive) | > 100 µM (inactive) | > 100 µM (inactive) | > 100 µM (inactive) |
| CCOC(=O)/C(=C\NC[C@@H](C)O)c1nc2ccccc2[nH]1 | 0.33 µM (active) | 96.8 µM (inactive) | > 100 µM (inactive) | 64 µM (inactive) | 73.3 µM | 71.3 µM (inactive) | 20.4 µM (inactive) | 40.3 µM (inactive) | 54.5 µM (inactive) | 29.1 µM (inactive) | 0.238 µM (active) | > 100 µM (inactive) | > 100 µM (inactive) | 56 µM (inactive) | 37.8 µM (inactive) | 54.2 µM (inactive) | > 100 µM (inactive) |  | > 100 µM (inactive) |
| Cc1ccc(C(=O)C2=CN=C3C(=O)N(c4ccccc4)N(C)C3(C)C2=N)cc1 (configuration not stated) | > 100 µM (inactive) | > 100 µM (inactive) | > 100 µM (inactive) | > 100 µM (inactive) | > 100 µM |  | > 100 µM (inactive) | > 100 µM (inactive) | > 100 µM (inactive) | > 100 µM (inactive) | > 100 µM (inactive) |  | > 100 µM (inactive) | > 100 µM (inactive) | > 100 µM (inactive) | > 100 µM (inactive) | > 100 µM (inactive) | > 100 µM (inactive) | > 100 µM (inactive) |
| CCOC(=O)c1ccc(/N=N\c2ccc(N(CCC#N)CCC#N)cc2C)cc1 | > 100 µM (inactive) | > 100 µM (inactive) |  | > 100 µM (inactive) | > 100 µM | > 100 µM (inactive) | > 100 µM (inactive) | 30.4 µM (inactive) | 95.1 µM (inactive) | > 100 µM (inactive) | > 100 µM (inactive) | > 100 µM (inactive) | > 100 µM (inactive) | > 100 µM (inactive) | > 100 µM (inactive) | > 100 µM (inactive) | > 100 µM (inactive) | > 100 µM (inactive) | 72.9 µM (inactive) |
| Nc1c(-c2ccc(Cl)cc2)[n+]([O-])c2ccccc2[n+]1[O-] | 5.86 µM (inactive) | > 100 µM (inactive) |  | > 100 µM (inactive) | 76.4 µM | > 100 µM (inactive) | 32.4 µM (inactive) | 25.3 µM (inactive) | 54.6 µM (inactive) | 34.5 µM (inactive) | 27.3 µM (inactive) | > 100 µM (inactive) | > 100 µM (inactive) | > 100 µM (inactive) | > 100 µM (inactive) | > 100 µM (inactive) | > 100 µM (inactive) | 62.2 µM (inactive) | > 100 µM (inactive) |

From ChEMBL document CHEMBL1201862, “PubChem BioAssay data set” (2004)
